Data as given in patent US9144239B2, “Macrocyclic picolinamides as fungicides” (DOW AGROSCIENCES LLC, priority 2012, dated 2015).
Where two headings read alike, the source gives them in different places.

Columns and labels:
[1] = test system: Puccinia triticina; synonym: Puccinia recondita f. sp. tritici; assay: Fungicidal activity: wheat brown rust (PUCCRT), wheat seedlings; format: in vivo; conditions: 100 ppm, wheat
Protocol: Technical grades of materials were dissolved in acetone, which were then mixed with nine volumes of water containing 110 ppm Triton X-100. The fungicide solutions were applied onto wheat seedlings using an automated booth sprayer to run-off. All sprayed plants were allowed to air dry prior to further handling. Wheat plants (variety Yuma) were grown from seed in a greenhouse in 50% mineral soil/50% soil-less Metro mix until the first leaf was fully emerged, with 7-10 seedlings per pot. These plants were inoculated with an aqueous spore suspension of Septoria tritici either prior to or after fungicide treatments. After inoculation the plants were kept in 100% relative humidity (one day in a dark dew chamber followed by two to three days in a lighted dew chamber at 20° C.) to permit spores to germinate and infect the leaf. The plants were then transferred to a greenhouse set at 20° C. for disease to develop. When disease symptoms were fully expressed on the 1st leaves of untreated plants, infection levels were assessed on a scale of 0 to 100 percent disease severity. Percent disease control was calculated using the ratio of disease severity on treated plants relative to untreated plants. Evaluation of Fungicidal Activity: Wheat Brown Rust (Puccinia […]; Synonym: Puccinia recondita f. Sp. Tritici; Bayer Code PUCCRT) Wheat plants (variety Yuma) were grown from seed in a greenhouse in 50% mineral soil/50% soil-less Metro mix until the first leaf was fully emerged, with 7-10 seedlings per pot. These plants were inoculated with an aqueous spore suspension of Puccinia triticina either prior to or after fungicide treatments. After inoculation the plants were kept in a dark dew room at 22° C. with 100% relative humidity overnight to permit spores to germinate and infect the leaf. The plants were then transferred to a greenhouse set at 24° C. for disease to develop. Fungicide formulation, application and disease assessment followed the procedures as described in the Example A.

[2] = test system: Mycosphaerella graminicola; anamorph: Septoria tritici; assay: Fungicidal activity: leaf blotch of wheat (SEPTTR), wheat seedlings; format: in vivo; conditions: Zymoseptoria tritici, 100 ppm, wheat
Protocol: Evaluation of Fungicidal Activity: Leaf Blotch of Wheat (Mycosphaerella Graminicola; Anamorph: Septoria tritici; Bayer Code […]) Technical grades of materials were dissolved in acetone, which were then mixed with nine volumes of water containing 110 ppm Triton X-100. The fungicide solutions were applied onto wheat seedlings using an automated booth sprayer to run-off. All sprayed plants were allowed to air dry prior to further handling. Wheat plants (variety Yuma) were grown from seed in a greenhouse in 50% mineral soil/50% soil-less Metro mix until the first leaf was fully emerged, with 7-10 seedlings per pot. These plants were inoculated with an aqueous spore suspension of Septoria tritici either prior to or after fungicide treatments. After inoculation the plants were kept in 100% relative humidity (one day in a dark dew chamber followed by two to three days in a lighted dew chamber at 20° C.) to permit spores to germinate and infect the leaf. The plants were then transferred to a greenhouse set at 20° C. for disease to develop. When disease symptoms were fully expressed on the 1st leaves of untreated plants, infection levels were assessed on a scale of 0 to 100 percent disease severity. Percent disease control was calculated using the ratio of disease severity on treated plants relative to untreated plants.

[3] = 24 h, 1 Day Protectant, read-out: Disease Control PUCCRT 1DP
[4] = 72 h, 3 Day Curative, read-out: Disease Control PUCCRT 3DC
[5] = 24 h, 1 Day Protectant, read-out: Disease Control SEPTTR 1DP
[6] = 72 h, 3 Day Curative, read-out: Disease Control SEPTTR 3DC

Row | Compound | pest or weed control at 100 ppm [1, 3] [%] | pest or weed control at 100 ppm [1, 4] [%] | pest or weed control at 100 ppm [2, 5] [%] | pest or weed control at 100 ppm [2, 6] [%]
1 | CCOCC(=O)OCOc1c(OC)ccnc1C(=O)N[C@H]1COC[C@H](Oc2ccc(F)cc2)[C@@H](Oc2ccc(F)cc2)[C@H](C)OC1=O [Compound 230] | 80 to 100 | 80 to 100 | 80 to 100 | 80 to 100
2 | COc1ccnc(C(=O)N[C@H]2COC[C@H](Oc3ccccc3)[C@@H](OC3CCCC3)[C@H](C)OC2=O)c1OCOC(C)=O [Compound 224] | 80 to 100 | 80 to 100 | 80 to 100 | 80 to 100
3 | COc1ccnc(C(=O)N[C@H]2COC[C@H](Oc3ccccc3)[C@@H](O)[C@H](C)OC2=O)c1O [Compound 211] | 0 to 80 |  |  | 0 to 80
4 | COc1ccnc(C(=O)N[C@H]2COC[C@H](OCC(C)C)[C@@H](Oc3cccc(Cl)c3)[C@H](C)OC2=O)c1O [Compound 194] | 80 to 100 | 80 to 100 |  | 
5 | COc1ccnc(C(=O)N[C@@H]2COC[C@H](OCc3ccccc3)[C@@H](OCc3ccccc3)[C@@H](C)OC2=O)c1OCOC(C)=O [Compound 31] | 0 to 80 | 0 to 80 | 0 to 80 | 0 to 80
6 | COc1ccnc(C(=O)N[C@H]2COC[C@H](OC3CCCC3)[C@@H](Oc3ccccc3)[C@H](C)OC2=O)c1OCOC(C)=O [Compound 223] | 80 to 100 | 80 to 100 | 80 to 100 | 80 to 100
7 | COc1ccnc(C(=O)N[C@H]2COC[C@H](Oc3ccc(F)cc3)[C@@H](Oc3ccc(F)cc3)[C@H](C)OC2=O)c1O [Compound 208] | 80 to 100 |  | 80 to 100 | 0 to 80
8 | COc1ccnc(C(=O)N[C@H]2COC[C@H](OCC3CC3)[C@@H](OCC3CC3)[C@H](C)OC2=O)c1OCOC(C)=O [Compound 233] | 80 to 100 | 80 to 100 | 80 to 100 | 0 to 80
9 | COc1ccnc(C(=O)N[C@H]2CO[C@H](C)[C@H]3OC(C)(C)O[C@@H]3[C@@H](C)OC2=O)c1OCOC(C)=O [Compound 29] | 0 to 80 | 0 to 80 | 0 to 80 | 0 to 80
10 | CCCO[C@H]1[C@H](C)OC(=O)[C@@H](NC(=O)c2nccc(OC)c2O)COC[C@@H]1Oc1ccccc1 [Compound 203] | 80 to 100 | 80 to 100 | 80 to 100 | 80 to 100
11 | CC[C@@H]1OC(=O)[C@@H](NC(=O)c2nccc(OC)c2OCOC(C)=O)COC[C@H](OCC(C)C)[C@H]1OCC(C)C [Compound 23] | 80 to 100 | 80 to 100 | 80 to 100 | 80 to 100
12 | COc1ccnc(C(=O)N[C@H]2COC[C@H](Oc3cc(C)cc(C)c3)[C@@H](Oc3cc(C)cc(C)c3)[C@H](C)OC2=O)c1O [Compound 198] | 0 to 80 |  | 80 to 100 | 
13 | COc1ccnc(C(=O)N[C@H]2COC[C@@H](OCc3ccccc3)[C@H](OCc3ccccc3)[C@H](C)OC2=O)c1O [Compound 38] | 80 to 100 | 0 to 80 | 0 to 80 | 0 to 80
14 | COc1ccnc(C(=O)N[C@H]2COC[C@H](Oc3ccccc3)[C@@H](OC3CCCC3)[C@H](C)OC2=O)c1O [Compound 205] | 80 to 100 | 80 to 100 | 80 to 100 | 80 to 100
15 | COc1ccnc(C(=O)N[C@@H]2COC[C@H](OCC(C)C)[C@@H](OCC(C)C)[C@@H](COCC(C)C)OC2=O)c1O [Compound 16] | 0 to 80 | 0 to 80 | 0 to 80 | 
16 | CCCCO[C@H]1COC[C@H](NC(=O)c2nccc(OC)c2OCOC(C)=O)C(=O)O[C@@H](C)[C@@H]1OCC(C)C [Compound 50] | 80 to 100 | 80 to 100 | 80 to 100 | 80 to 100
17 | COc1ccc(O[C@H]2[C@H](C)OC(=O)[C@@H](NC(=O)c3nccc(OC)c3OCOC(C)=O)COC[C@@H]2Oc2ccc(OC)cc2)cc1 [Compound 220] | 80 to 100 | 80 to 100 | 80 to 100 | 80 to 100
18 | COc1ccnc(C(=O)N[C@H]2COC[C@H](Oc3ccc(C)cc3)[C@@H](Oc3ccc(C)cc3)[C@H](C)OC2=O)c1OCOC(C)=O [Compound 226] | 80 to 100 | 80 to 100 | 80 to 100 | 80 to 100
19 | COc1ccnc(C(=O)N[C@@H]2COC[C@H](OCC(C)C)[C@@H](OCC(C)C)[C@@H](COCC(C)C)OC2=O)c1OCOC(C)=O [Compound 18] | 0 to 80 | 0 to 80 | 0 to 80 | 
20 | CC[C@H]1OC(=O)[C@@H](NC(=O)c2nccc(OC)c2O)COC[C@H](OCC(C)C)[C@H]1OCC(C)C [Compound 19, N-((3S,7S,8S,9R)-9-ethyl-7,8-diisobutoxy-2-oxo-1,5-dioxonan-3-yl)-3-hydroxy-4-methoxypicolinamide] |  |  | 0 to 80 | 0 to 80
21 | CCCCO[C@H]1COC[C@H](NC(=O)c2nccc(OC)c2O)C(=O)O[C@@H](C)[C@@H]1O [Compound 42, N-((3S,7S,8S,9S)-7-butoxy-8-hydroxy-9-methyl-2-oxo-1,5-dioxonan-3-yl)-3-hydroxy-4-methoxypicolinamide] | 80 to 100 | 80 to 100 | 0 to 80 | 0 to 80
22 | COc1ccnc(C(=O)N[C@H]2CO[C@@H](C)[C@H](OCc3ccccc3)[C@@H](OCc3ccccc3)[C@H](C)OC2=O)c1O [Compound 25] | 80 to 100 | 0 to 80 | 80 to 100 | 0 to 80
23 | COc1ccnc(C(=O)N[C@H]2COC[C@@H](OCc3ccccc3)[C@H](OCc3ccccc3)[C@H](C)OC2=O)c1OCOC(C)=O [Compound 40] | 80 to 100 | 0 to 80 | 0 to 80 | 0 to 80
24 | CCC(C)(C)O[C@H]1[C@H](C)OC(=O)[C@@H](NC(=O)c2nccc(OC)c2O)COC[C@@H]1OCC(C)C [Compound 79] | 80 to 100 | 80 to 100 | 80 to 100 | 80 to 100
25 | C=C(C)CO[C@H]1COC[C@@H](NC(=O)c2nccc(OC)c2O)C(=O)OC[C@@H]1OCC(=C)C [Compound 9] | 0 to 80 | 0 to 80 | 0 to 80 | 0 to 80
26 | CC[C@H]1OC(=O)[C@@H](NC(=O)c2nccc(OC)c2OCOC(C)=O)COC[C@H](OCC(C)C)[C@H]1OCC(C)C [Compound 20] |  |  | 0 to 80 | 0 to 80
27 | COc1ccc(O[C@H]2COC[C@H](NC(=O)c3nccc(OC)c3O)C(=O)O[C@@H](C)[C@@H]2OC(=O)C(C)C)cc1 [Compound 200] |  |  | 0 to 80 | 
28 | CCCO[C@H]1[C@H](C)OC(=O)[C@@H](NC(=O)c2nccc(OC)c2O)COC[C@@H]1Oc1ccc(C(F)(F)F)cc1 [Compound 197] | 80 to 100 |  |  | 
29 | COc1ccnc(C(=O)N[C@H]2COC[C@H](OCC(C)C)[C@@H](Oc3ccc(C(F)(F)F)cc3)[C@H](C)OC2=O)c1O [Compound 195] | 80 to 100 |  |  | 
30 | CC[C@H]1OC(=O)[C@H](NC(=O)c2nccc(OC)c2O)COC[C@H](OCC(C)C)[C@H]1OCC(C)C [Compound 22] |  |  | 0 to 80 | 0 to 80
